Source: ChEMBL document CHEMBL1201862, “PubChem BioAssay data set” (2004)
Blank lines part the entries; values can stand above or below the compound they belong to. Active and inactive are the calls of the source.

Columns and labels:
CAAX prenyl protease 2 [1] = molecular target: CAAX prenyl protease 2 (Homo sapiens, UniProt Q9Y256); assay: human Rce1 protease inhibitors, dose response, biochemical, yeast membranes, quenched-peptide fluorescence, cherry-pick (AID 588849)
CAAX prenyl protease 2 [2] = molecular target: CAAX prenyl protease 2 (Saccharomyces cerevisiae S288c, UniProt Q03530); format: biochemical
CAAX prenyl protease 2 (Saccharomyces cerevisiae S288c, UniProt Q03530), sequence (Q03530 whole entry): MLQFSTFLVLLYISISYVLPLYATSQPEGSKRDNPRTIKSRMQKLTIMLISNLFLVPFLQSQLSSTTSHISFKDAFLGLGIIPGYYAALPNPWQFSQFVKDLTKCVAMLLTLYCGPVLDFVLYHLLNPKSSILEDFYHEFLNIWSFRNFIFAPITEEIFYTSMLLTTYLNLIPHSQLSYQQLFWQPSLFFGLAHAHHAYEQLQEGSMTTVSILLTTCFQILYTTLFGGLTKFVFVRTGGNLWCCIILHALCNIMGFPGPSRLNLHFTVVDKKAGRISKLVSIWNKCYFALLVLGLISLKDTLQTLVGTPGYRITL

[3] = molecular target: T1, Intestinal-type alkaline phosphatase (Homo sapiens, UniProt P09923); assay: human IAP activators, dose response, biochemical, luminescent, uHTS hits, set 2 (AID 488817); format: functional;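 further: potency of activators that raise enzyme activity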
T1 sequence (P09923 whole entry): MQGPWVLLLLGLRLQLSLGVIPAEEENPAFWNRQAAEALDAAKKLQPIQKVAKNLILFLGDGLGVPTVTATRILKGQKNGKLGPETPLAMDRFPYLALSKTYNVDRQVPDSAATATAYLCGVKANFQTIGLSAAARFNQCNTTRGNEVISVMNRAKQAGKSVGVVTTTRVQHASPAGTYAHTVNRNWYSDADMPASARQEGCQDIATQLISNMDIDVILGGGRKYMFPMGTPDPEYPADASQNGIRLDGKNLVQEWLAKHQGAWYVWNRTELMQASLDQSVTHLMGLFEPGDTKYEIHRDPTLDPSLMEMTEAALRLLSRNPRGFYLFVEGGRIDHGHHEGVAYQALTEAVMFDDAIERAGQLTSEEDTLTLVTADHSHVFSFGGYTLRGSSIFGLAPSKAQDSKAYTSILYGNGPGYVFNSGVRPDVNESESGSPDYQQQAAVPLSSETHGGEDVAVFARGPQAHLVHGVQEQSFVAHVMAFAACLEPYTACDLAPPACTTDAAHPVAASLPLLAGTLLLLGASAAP

[4] = molecular target: Intestinal-type alkaline phosphatase (Mus musculus, UniProt P24822); assay: PubChem AID 488875; format: functional
Intestinal-type alkaline phosphatase (Mus musculus, UniProt P24822), sequence (P24822 whole entry): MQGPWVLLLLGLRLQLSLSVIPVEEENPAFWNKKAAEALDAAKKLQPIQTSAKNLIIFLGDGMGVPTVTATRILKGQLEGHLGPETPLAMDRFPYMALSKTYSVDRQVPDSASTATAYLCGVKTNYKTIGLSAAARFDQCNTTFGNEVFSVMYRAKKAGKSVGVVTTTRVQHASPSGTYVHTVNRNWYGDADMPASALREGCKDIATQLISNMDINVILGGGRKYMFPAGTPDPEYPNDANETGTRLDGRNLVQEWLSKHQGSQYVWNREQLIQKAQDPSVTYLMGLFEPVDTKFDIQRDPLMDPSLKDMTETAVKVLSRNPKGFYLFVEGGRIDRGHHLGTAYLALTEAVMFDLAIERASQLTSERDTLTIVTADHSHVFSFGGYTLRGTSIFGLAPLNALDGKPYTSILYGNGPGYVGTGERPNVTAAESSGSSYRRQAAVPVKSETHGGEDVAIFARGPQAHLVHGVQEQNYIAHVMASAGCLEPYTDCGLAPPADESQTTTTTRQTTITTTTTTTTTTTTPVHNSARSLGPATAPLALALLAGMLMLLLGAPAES

[5] = molecular target: T1, Intestinal-type alkaline phosphatase; assay: human intestinal alkaline phosphatase activators, dose response, biochemical, luminescence, uHTS hits (AID 463120); format: functional
[6] = molecular target: Ras and Rab interactor 1/Tyrosine-protein kinase ABL1 (Homo sapiens, UniProt P00519+Q13671); format: functional;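 further: biochemical TR-FRET dose-response test measuring inhibition of binding between Rin1 and Abl proteins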
[7] = molecular target: T2, Alkaline phosphatase, tissue-nonspecific isozyme (Homo sapiens, UniProt P05186); assay: TNAP enzyme activators, dose response, selectivity assay for human IAP activator project, biochemical, TNAP isozyme, human IAP uHTS hits (AID 488886); format: functional;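 further: potency of compounds raising TNAP activity as a selectivity check on IAP activators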
T2 sequence (P05186 whole entry): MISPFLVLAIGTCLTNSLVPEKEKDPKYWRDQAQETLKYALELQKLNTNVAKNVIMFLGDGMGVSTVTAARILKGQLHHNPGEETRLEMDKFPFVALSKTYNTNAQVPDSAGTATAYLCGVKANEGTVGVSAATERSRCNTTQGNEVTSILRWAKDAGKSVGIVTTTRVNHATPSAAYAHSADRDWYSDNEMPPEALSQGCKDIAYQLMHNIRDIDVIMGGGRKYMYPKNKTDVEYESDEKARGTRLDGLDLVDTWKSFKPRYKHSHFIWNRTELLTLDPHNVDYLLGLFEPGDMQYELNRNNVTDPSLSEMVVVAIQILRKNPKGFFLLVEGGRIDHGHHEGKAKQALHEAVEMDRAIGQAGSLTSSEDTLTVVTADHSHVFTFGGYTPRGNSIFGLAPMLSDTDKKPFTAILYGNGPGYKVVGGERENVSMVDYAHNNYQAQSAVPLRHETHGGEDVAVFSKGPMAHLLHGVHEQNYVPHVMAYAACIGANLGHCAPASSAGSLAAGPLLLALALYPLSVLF

[8] = molecular target: Voltage-gated inwardly rectifying potassium channel KCNH2 (Homo sapiens, UniProt Q12809); conditions: Potency;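 further: confirmatory quantitative high-throughput screen measuring inhibition of hERG channel activity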
Voltage-gated inwardly rectifying potassium channel KCNH2, sequence (Q12809 whole entry): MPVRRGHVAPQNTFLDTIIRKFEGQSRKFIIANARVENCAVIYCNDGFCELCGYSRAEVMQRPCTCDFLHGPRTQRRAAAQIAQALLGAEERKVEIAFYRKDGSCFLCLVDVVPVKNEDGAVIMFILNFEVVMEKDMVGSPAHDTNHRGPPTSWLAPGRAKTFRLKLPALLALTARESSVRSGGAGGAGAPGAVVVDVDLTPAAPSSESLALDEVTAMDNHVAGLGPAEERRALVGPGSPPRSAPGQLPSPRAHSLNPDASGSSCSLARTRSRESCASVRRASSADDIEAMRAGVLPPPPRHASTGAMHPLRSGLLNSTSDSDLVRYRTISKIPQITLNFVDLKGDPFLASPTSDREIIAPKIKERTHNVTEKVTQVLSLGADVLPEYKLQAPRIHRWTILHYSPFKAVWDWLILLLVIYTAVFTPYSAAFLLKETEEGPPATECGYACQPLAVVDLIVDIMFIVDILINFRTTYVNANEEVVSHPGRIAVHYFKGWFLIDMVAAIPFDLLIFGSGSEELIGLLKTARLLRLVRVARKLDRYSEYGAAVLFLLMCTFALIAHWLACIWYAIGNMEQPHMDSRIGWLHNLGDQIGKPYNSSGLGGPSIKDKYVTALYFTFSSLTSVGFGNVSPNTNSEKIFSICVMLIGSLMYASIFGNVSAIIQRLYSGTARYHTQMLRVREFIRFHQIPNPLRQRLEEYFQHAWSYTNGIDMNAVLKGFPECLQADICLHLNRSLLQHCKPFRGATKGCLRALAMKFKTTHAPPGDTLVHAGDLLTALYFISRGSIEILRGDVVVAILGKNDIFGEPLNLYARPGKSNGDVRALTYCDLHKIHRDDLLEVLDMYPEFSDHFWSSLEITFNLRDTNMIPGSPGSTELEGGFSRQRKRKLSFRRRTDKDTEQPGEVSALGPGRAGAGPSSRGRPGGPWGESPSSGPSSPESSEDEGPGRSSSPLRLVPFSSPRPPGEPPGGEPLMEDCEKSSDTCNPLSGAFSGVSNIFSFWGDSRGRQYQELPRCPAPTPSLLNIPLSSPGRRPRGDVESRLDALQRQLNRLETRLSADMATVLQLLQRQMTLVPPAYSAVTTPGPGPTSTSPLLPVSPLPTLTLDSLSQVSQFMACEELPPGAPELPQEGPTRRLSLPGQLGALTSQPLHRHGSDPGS

Escherichia coli = assay: microbe, parasite or virus in culture
Cytochrome P450 3A4 = Cytochrome P450 3A4 (Homo sapiens, UniProt P08684);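 further: CYP3A4 tested as one member of a cytochrome P450 panel screen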
Cytochrome P450 3A4, sequence (P08684 whole entry): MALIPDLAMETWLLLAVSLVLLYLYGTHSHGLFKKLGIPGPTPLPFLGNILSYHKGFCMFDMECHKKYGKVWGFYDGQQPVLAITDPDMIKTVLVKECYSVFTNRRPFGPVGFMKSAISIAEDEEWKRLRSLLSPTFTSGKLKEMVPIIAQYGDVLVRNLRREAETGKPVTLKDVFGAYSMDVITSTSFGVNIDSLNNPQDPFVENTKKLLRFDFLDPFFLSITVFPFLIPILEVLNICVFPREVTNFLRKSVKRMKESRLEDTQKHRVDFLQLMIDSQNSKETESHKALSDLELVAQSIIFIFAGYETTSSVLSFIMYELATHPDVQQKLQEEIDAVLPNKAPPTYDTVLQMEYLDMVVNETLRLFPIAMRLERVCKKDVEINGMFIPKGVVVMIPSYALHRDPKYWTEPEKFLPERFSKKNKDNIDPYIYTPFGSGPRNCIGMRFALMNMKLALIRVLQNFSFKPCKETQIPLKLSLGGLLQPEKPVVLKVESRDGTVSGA

Cytochrome P450 2C9 = Cytochrome P450 2C9 (Homo sapiens, UniProt P11712)
Cytochrome P450 2C9, sequence (P11712 whole entry): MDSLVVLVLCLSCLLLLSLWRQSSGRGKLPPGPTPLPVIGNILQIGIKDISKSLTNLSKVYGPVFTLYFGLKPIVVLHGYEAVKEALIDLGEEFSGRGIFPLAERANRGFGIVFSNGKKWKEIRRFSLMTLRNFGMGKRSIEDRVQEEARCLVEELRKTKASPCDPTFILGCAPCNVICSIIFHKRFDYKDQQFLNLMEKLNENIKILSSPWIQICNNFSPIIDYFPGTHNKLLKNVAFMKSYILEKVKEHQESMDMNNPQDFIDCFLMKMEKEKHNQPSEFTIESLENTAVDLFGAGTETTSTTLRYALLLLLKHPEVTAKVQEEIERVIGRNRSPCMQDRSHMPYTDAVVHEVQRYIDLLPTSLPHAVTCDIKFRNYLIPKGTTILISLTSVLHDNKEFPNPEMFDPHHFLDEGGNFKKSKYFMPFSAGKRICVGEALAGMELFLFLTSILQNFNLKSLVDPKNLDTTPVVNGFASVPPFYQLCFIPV

HEK293 [9] = assay: cells; format: functional, cell-based; conditions: Homo sapiens
HEK293 [10] = assay: cells; format: functional, cell-based; conditions: Homo sapiens; remark: listed apart in the source
[11] = molecular target: COUP transcription factor 2 (Homo sapiens, UniProt P24468); assay: Luminescence-based cell-based high throughput dose response assay to identify inhibitors of COUP-TFII (NR2F2).; format: functional;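 further: HEK293 cells transiently cotransfected with COUP-TFII expression vector and reporter; luciferase reporter luminescence driven by COUP-TFII from the pX2-168 reporter plasmid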
COUP transcription factor 2, sequence (P24468 whole entry): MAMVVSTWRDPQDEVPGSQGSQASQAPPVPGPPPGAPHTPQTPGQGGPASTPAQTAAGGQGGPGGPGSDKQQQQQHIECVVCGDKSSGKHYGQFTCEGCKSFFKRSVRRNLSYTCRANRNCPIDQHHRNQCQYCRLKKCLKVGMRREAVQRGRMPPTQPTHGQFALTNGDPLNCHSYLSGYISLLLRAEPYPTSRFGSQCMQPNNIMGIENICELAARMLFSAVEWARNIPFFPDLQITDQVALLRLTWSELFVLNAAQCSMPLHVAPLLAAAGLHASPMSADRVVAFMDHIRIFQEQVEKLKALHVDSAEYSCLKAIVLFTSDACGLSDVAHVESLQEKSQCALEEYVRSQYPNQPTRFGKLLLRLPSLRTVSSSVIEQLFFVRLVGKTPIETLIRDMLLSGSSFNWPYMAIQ

HEK293 [12] = assay: NOD2 signaling inhibitors in MDP-stimulated cells, cell-based, uHTS, luminescence (AID 2001); format: functional; conditions: Homo sapiens
HEK293 [13] = assay: NOD1 signaling inhibitors, primary screen, cell-based, luminescence, uHTS (AID 1578); format: functional; conditions: Homo sapiens

CAAX prenyl protease 2 (Homo sapiens, UniProt Q9Y256), sequence (Q9Y256 whole entry): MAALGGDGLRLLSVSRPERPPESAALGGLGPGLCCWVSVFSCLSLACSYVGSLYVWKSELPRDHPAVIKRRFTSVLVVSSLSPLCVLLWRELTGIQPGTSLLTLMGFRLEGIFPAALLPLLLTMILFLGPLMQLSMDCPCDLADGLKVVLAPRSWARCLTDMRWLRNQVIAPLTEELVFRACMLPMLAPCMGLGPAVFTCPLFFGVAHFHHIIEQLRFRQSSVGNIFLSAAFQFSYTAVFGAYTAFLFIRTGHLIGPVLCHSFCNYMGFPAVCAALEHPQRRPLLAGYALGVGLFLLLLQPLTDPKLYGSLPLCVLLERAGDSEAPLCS

Compound: Cc1nc(-c2ccc(Cl)cc2)sc1C1(C)CC(c2ccccc2Br)=NO1 (configuration not stated)
AC50 (CAAX prenyl protease 2 [1]): > 100 µM (inactive)
AC50 (CAAX prenyl protease 2 [2]): > 100 µM (inactive)

Compound: Nc1nc(SCc2ccc([N+](=O)[O-])cc2)c2ncn([C@@H]3O[C@H](CO)[C@H](O)[C@H]3O)c2n1
AC50 [8]: 20 µM (inconclusive)

Compound: COCc1cc(O)nc2cc(NC(=O)C(F)(F)F)c(C)cc12
AC50 (Escherichia coli): 57.2 µM (active)

Compound: C=CC[n+]1c(-c2ccc(Cl)cc2Cl)csc1Nc1c(C)n(C)n(-c2ccccc2)c1=O
IC50 (HEK293 [9]): > 20 µM (inactive)
IC50 (HEK293 [10]): 6.87 µM (active)
IC50 [11]: 9.47 µM (active)
IC50 (HEK293 [12]): 7.13 µM (active)
EC50 (HEK293 [13]): 5.29 µM (active)

Compound: Cc1nc2c(c(-c3ccccc3)c1C#N)C(=O)c1ccccc1-2
AC50 (Cytochrome P450 3A4): inconclusive

Continued, values first:

EC50 [3]: 67.3 µM (active)
EC50 [4]: 88 µM (active)
EC50 [5]: 82.8 µM (active)
IC50 [6]: 16.4 µM (inactive)
EC50 [7]: 66.1 µM (active)
Compound: CC(C)n1cc(CN2CCC(C(=O)Nc3cccc(-c4cccc(Cl)c4)c3)CC2)cn1

AC50 (Cytochrome P450 3A4): inconclusive
AC50 (Cytochrome P450 2C9): 25.1 µM (inconclusive)
Compound: O=C(c1ccco1)N1CCC2(CC1)CN(C(c1ccccc1)c1ccccc1)C2
